Reference: US20080038768A1, “Assay for ubiquitin mediated proteolysis” (priority 2006, published 2008)
pIC50: −log10 of the molar value.

How the values were obtained:
[1] = test system: USP-2 and UCH-L3; assay: Downscaling: compatibility of the deubiquitinase assay with HBC and DMSO; type: biochemical, human
Method: One important factor which has to be tested during downscaling of the assay to the […] (2080 well nanoplates) is the assay's compatibility with hydroxy beta cyclodextrin (HBC) and DMSO. Nanocarriers are coated with HBC in order facilitate re-solubilization of dried test compounds (‘dry screening’) and to reduce adsorption of assay components to the carrier. If HBC interferes with the assay, pre-coated plates can not be used and ‘wet screening’, utilizing compounds dissolved in DMSO, has to be performed. […] Even DMSO concentrations of up to 5% are found to be compatible with the screen. […] These findings support a ‘wet screening’ format for these target family.

[2] = test system: USP-2 and UCH-L3; details: in absence of reducing agent; cited from earlier work
[3] = test system: USP-2 and UCH-L3; assay: Inhibition of the deubiquitinases (titration of inhibitor, fluorescence polarization assay); type: biochemical, human; details: in presence of 5 mM DTT
Method: Measurements of polarization and lifetime are performed on the research reader of Evotec OAI (see below). To perform the test, the de-ubiquitinating enzyme is first put into the well and the addition of the substrate triggered the start of the reaction. The enzymatic reaction is stopped by shifting the pH from 7.5 to 5 with the addition of Stop buffer (end concentration of 30 mM malonic acid pH 4.5—see TABLE 1). With this procedure the read-out could be kept stable for several hours.
Cysteine proteases, such as USP-2 and UCH-L3, are sensitive to covalent modification of the active site cystein. […] Ubiquitin aldehyde is a known inhibitor for both enzymes, USP-2 and UCH-L3. […] Using this molecule we analyzed whether addition of DTT can be utilized to mask the activity of covalent active site inhibitors during the screen. When titrating Ubiquitin aldehyde in presence of 5 mM DTT an IC50 value of 100 nM was found.

C[S+](C)[O-] [DMSO]
Concentration compatible with the screen [1]: up to 5% | Interference with the reaction ([1]; increasing concentrations added to the assay): only a minimal interference

hydroxy beta cyclodextrin [HBC]
Effect on enzymatic activity ([1]; HBC added to the assay): a reduction of the enzymatic activity was observed

Ubiquitin aldehyde
Potency [2]: pM activity range | pIC50 [3]: 7.00
